The results in this text go back to paper PMC12192727, “Strategies to Develop Na,K-ATPase-α4 Inhibitors as Male Contraceptives” (International Journal of Molecular Sciences, 2025).

The target of one data set is T1, NKAα1 (Rattus norvegicus, UniProt P06685).
T1 construct: made in house; host or cells: Sf9 insect cells (baculovirus infection), cell homogenates
The data set is described as follows: Na,K-ATPase activity assay, α1β1 expressed in Sf9 insect cells. The conditions noted are these: read-out: NKA Isoform Specificity (IC50 M) NKAα1. The data set is classed as biochemical. How it is done: The NKA α1 and α4 isoforms were expressed in Sf9 insect cells as previously described. Briefly, cells were cultured in suspension at 27 °C in Grace’s medium (JRH Biosciences, Lenexa, KS, USA) with 3.3 g/L of lactalbumin hydrolysate and 3.3 g/L of yeastolate and supplemented with 10% (v/v) fetal bovine serum, 100 units/mL of penicillin, 100 μg/mL of streptomycin, and 0.25 μg/mL of fungizone. For infections, cells were placed on 150 mm Petri dishes and infected with baculoviruses coding for the NKA α1β1 and α4β1 isozymes. Three days after infection, cells were scraped from the culture plates, centrifuged at 1500× g for 10 min, and washed twice in 10 mM imidazole hydrochloride (pH 7.5) and 1 mM EGTA (suspension buffer). Cells were then placed in a suspension buffer plus the addition of 0.32 M sucrose and stored at −20 °C or directly used for assays.
The Na,K-ATPase activity of insect cell homogenates was determined by measuring the initial rate of release of ^32Pi from γ[^32P]-ATP as described. […] Enzymatic activity was determined as the difference in ATP hydrolysis in the absence and presence of 1 mM ouabain.
Figure 6 Selectivity of 13 and 45 on NKAα4 over the NKAα1 isoform. […] The hydrolysis of ATP in the presence of saturating concentrations of Na^+, K^+, and Mg^2+ was measured using γ[^32P]-ATP. […]

A further data set relates to mouse sperm. Put plainly: Sperm viability (Live/Dead assay). The conditions noted are these: 10 µM, one hour. Format: cell-based. As to the method: To assess whether 13 and 45 affected sperm viability, we treated mouse sperm with the compounds for one hour at 10 µM and determined the number of live and dead cells in the sample.
Figure 5 Cell viability after treatment with compounds 13 and 45. Mouse caudal epididymal sperm was subjected to a medium not supporting capacitation to 10 µM of 13 and 45. After one hour, sperm was subjected to the Live/Dead assay as per the manufacturer’s recommendations. Cells were counted as viable/non-viable and expressed as the mean ± SEM of three determinations.

A further data set has as its system mouse epididymal sperm. Put plainly: Reversibility of effect on sperm motility after washing. The data set is classed as cell-based. Conditions: after washing the cells with fresh medium. How it is done:
An important goal for the development of agents to be used for contraception is to assess the reversibility of their effect on sperm. To achieve this, we treated mouse sperm in the absence and presence of either 13 or 45 and measured epididymal sperm motility before and after washing the cells with fresh medium.
Mouse epididymal sperm were treated in the absence or presence of compounds 13 or 45 for one hour in Whitten’s medium. After an initial measurement of sperm motility using CASA, the sperm was washed by centrifugating the sample at 300× g for 3 min and resuspension in fresh Whitten’s medium. Then, sperm motility was determined again using CASA for the different times and for up to 180 min.
Figure 7 Reversibility of the effect of compounds 13 and 45. Mouse epididymal sperm were treated in the absence (untreated control) or presence of 13 (A) or 45 (B) for one hour. Then, the sperm was washed, and motility was measured before and after washing the cells using CASA. Sperm movement was followed during the indicated times. Values are expressed as the mean ± SEM of three determinations. Samples treated with 13 and 45 were statistically different from the untreated controls, with p < 0.05.

Entries after “also recorded” stand apart in the source; their conditions may differ.

For the molecule `C[C@]12CC[C@H]3[C@@H](CC=C4C[C@@H](O)CC[C@@]43C)[C@@H]1CC[C@@H]2c1cn(Cc2ccccc2)nn1` [Compound 13, (3S,8S,9S,10R,13S,14S,17S)-17-(1-Benzyl-1H-1,2,3-triazol-4-yl)-10,13-dimethyl-2,3,4,7,8,9,10,11,12,13,14,15,16,17-tetradecahydro-1H-cyclopenta[a]phenanthren-3-ol], at NKAα1, the IC50 is > 100 µM. In addition, the Sperm viability entry in the data set on mouse sperm was “the same as that of the untreated controls”. The “Reversibility of effect on sperm motility” value in the data set with mouse epididymal sperm is on record as “maintained over time; also recorded: not reversible”.
Taken in the same sequence, the figures for `CC12CCC(=O)C=C1CCCC2n1cc(-c2ccccc2)nn1` (stereo not drawn) [Compound 45, 4a-Methyl-5-(4-phenyl-1H-1,2,3-triazol-1-yl)-4,4a,5,6,7,8-hexahydronaphthalen-2(3H)-one] were > 100 µM, “the same as that of the untreated controls” and “maintained over time; also recorded: not reversible”.
